Target: human PDE1b enzyme (Homo sapiens (Human), UniProt Q01064)
Assay: PDE1b inhibitory assay (IMAP TR-FRET)
Conditions: for PDE1b (pEC50): negative log of half-maximal molar inhibitory concentration, 200 nM FAM-cAMP, reported as ranges
Procedure: PDE1b inhibition was determined by an IMAP TR-FRET assay. The IMAP TR-FRET PDE assay was optimized for concentration of enzyme, Calmodulin, cAMP or cGMP substrate, DMSO tolerance, and incubation time.
After a brief centrifugation, the plates were incubated for 30 minutes at room temperature. The assay was terminated by adding 5 μL IMAP binding reagent/Tb complex (Molecular Devices, Sunnyvale, Calif.) to each well.
Plates were incubated 1 hour at room temperature and read on a Viewlux multimode plate reader (Perkin Elmer). The instrument was set to excite using the DUG11 filter and measure using 490/10 nm and 520/10 nm filters. Ratios of acceptor and donor were then calculated.
For EC50 calculations, the values of % efficacy versus a series of compound concentrations were then plotted using non-linear regression analysis of sigmoidal dose-response curves generated with the equation Y=B+(T−B)/1+10((Log EC50−X)×Hill Slope), where Y=percent activity, B=minimum percent efficacy, T=maximum percent efficacy, X=logarithm of compound and Hill Slope=slope factor or Hill coefficient. The EC50 value was determined by the concentration causing a half-maximal percent efficacy.

Structure (SMILES)	EC50 [nM]	PDE1b (pEC50)
COc1ccc(Cn2c(=O)n3nccc3c3cc(CN4C[C@@H](C)O[C@@H](C)C4)sc32)cc1 [Example 104, 2-(((2S,6R)-2,6-Dimethylmorpholino)methyl)-4-(4-methoxybenzyl)pyrazolo[1,5-c]thieno[3,2-e]pyrimidin-5(4H)-one]	100 to 1000	>7
O=c1n(Cc2ccc(Cl)cc2)c2sc3c(c2c2ncnn12)CCN(CC(F)(F)F)C3 [Example 107, 6-(4-Chlorobenzyl)-9-(2,2,2-trifluoroethyl)-8,9,10,11-tetrahydropyrido[4′,3′:4,5]thieno[3,2-e][1,2,4]triazolo[1,5-c]pyrimidin-5 (6H)-one]	100 to 1000	
COc1ccc(Cn2c(=O)n3ncnc3c3c4c(sc32)CN(Cc2nnc(C)s2)CC4)cc1 [Example 108, 6-(4-Methoxybenzyl)-9-((5-methyl-1,3,4-thiadiazol-2-yl)methyl)-8,9,10,11-tetrahydropyrido[4′,3′:4,5]thieno[3,2-e][1,2,4]triazolo[1,5-c]pyrimidin-5(6H)-one]		>7
COc1ccc(Cn2c(=O)n3ncnc3c3c4c(sc32)CN(CC2CC2)CC4)cc1 [Example 110, 9-(Cyclopropylmethyl)-6-(4-methoxybenzyl)-8,9,10,11-tetrahydropyrido[4′,3′:4,5]thieno[3,2-e][1,2,4]triazolo[1,5-c]pyrimidin-5 (6H)-one]		>7
COc1ccc(Cn2c(=O)n3ncnc3c3c4c(sc32)CN(CC2(C)COC2)CC4)cc1 [Example 111, 6-(4-Methoxybenzyl)-9-((3-methyloxetan-3-yl)methyl)-8,9,10,11-tetrahydropyrido[4′,3′:4,5]thieno[3,2-e][1,2,4]triazolo[1,5-c]pyrimidin-5 (6H)-one]		>7
COc1ccc(Cn2c(=O)n3ncnc3c3c4c(sc32)CN(CCCSC)CC4)cc1 [Example 112, 6-(4-Methoxybenzyl)-9-(3-(methylthio)propyl)-8,9,10,11-tetrahydropyrido[4′,3′:4,5]thieno[3,2-e][1,2,4]triazolo[1,5-c]pyrimidin-5(6H)-one]		>7
COc1ccc(Cn2c(=O)n3ncnc3c3c4c(sc32)CN(CC2CCOC2)CC4)cc1 (centres unmarked) [Example 113, 6-(4-Methoxybenzyl)-9-((tetrahydrofuran-3-yl)methyl)-8,9,10,11-tetrahydropyrido[4′,3′:4,5]thieno[3,2-e][1,2,4]triazolo[1,5-c]pyrimidin-5(6H)-one]		>7
COc1ccc(Cn2c(=O)n3ncnc3c3c4c(sc32)CN(Cc2ccc3c(c2)OC(F)(F)O3)CC4)cc1 [Example 114, 9-((2,2-Difluorobenzo[d][1,3]dioxol-5-yl)methyl)-6-(4-methoxybenzyl)-8,9,10,11-tetrahydropyrido[4′,3′:4,5]thieno[3,2-e][1,2,4]triazolo[1,5-c]pyrimidin-5 (6H)-one]	100 to 1000	
COc1ccc(Cn2c(=O)n3ncnc3c3c4c(sc32)CN(CC(C)(C)C)CC4)cc1 [Example 115, 6-(4-Methoxybenzyl)-9-neopentyl-8,9,10,11-tetrahydropyrido[4′,3′:4,5]thieno[3,2-e][1,2,4]triazolo[1,5-c]pyrimidin-5(6H)-one]		>7
COc1ccc(Cn2c(=O)n3ncnc3c3c4c(sc32)CN(Cc2ncccn2)CC4)cc1 [Example 116, 6-(4-Methoxybenzyl)-9-(pyrimidin-2-ylmethyl)-8,9,10,11-tetrahydropyrido[4′,3′:4,5]thieno[3,2-e][1,2,4]triazolo[1,5-c]pyrimidin-5 (6H)-one]		>7
COc1ccc(Cn2c(=O)n3ncnc3c3c4c(sc32)CN(CC2CCCCO2)CC4)cc1 (centres unmarked) [Example 117, 6-(4-Methoxybenzyl)-9-((tetrahydro-2H-pyran-2-yl)methyl)-8,9,10,11-tetrahydropyrido[4′,3′:4,5]thieno[3,2-e][1,2,4]triazolo[1,5-c]pyrimidin-5(6H)-one]		>7
COc1ccc(Cn2c(=O)n3ncnc3c3c4c(sc32)CN(CCCS(C)(=O)=O)CC4)cc1 [Example 118, 6-(4-Methoxybenzyl)-9-(3-(methylsulfonyl)propyl)-8,9,10,11-tetrahydropyrido[4′,3′:4,5]thieno[3,2-e][1,2,4]triazolo[1,5-c]pyrimidin-5 (6H)-one]		>7
COc1ccc(Cn2c(=O)n3ncnc3c3c4c(sc32)CN(Cc2ccncn2)CC4)cc1 [Example 119, 6-(4-Methoxybenzyl)-9-(pyrimidin-4-ylmethyl)-8,9,10,11-tetrahydropyrido[4′,3′:4,5]thieno[3,2-e][1,2,4]triazolo[1,5-c]pyrimidin-5(6H)-one]		>7
COc1ccc(Cn2c(=O)n3ncnc3c3c4c(sc32)CN(Cc2ccccn2)CC4)cc1 [Example 120, 6-(4-Methoxybenzyl)-9-(pyridin-2-ylmethyl)-8,9,10,11-tetrahydropyrido[4′,3′:4,5]thieno[3,2-e][1,2,4]triazolo[1,5-c]pyrimidin-5 (6H)-one]		>7
COc1ccc(Cn2c(=O)n3ncnc3c3c4c(sc32)CN(Cc2ccncc2)CC4)cc1 [Example 121, 6-(4-Methoxybenzyl)-9-(pyridin-4-ylmethyl)-8,9,10,11-tetrahydropyrido[4′,3′:4,5]thieno[3,2-e][1,2,4]triazolo[1,5-c]pyrimidin-5(6H)-one]		>7
COc1ccc(Cn2c(=O)n3ncnc3c3c4c(sc32)CN(Cc2nccn2C)CC4)cc1 [Example 122, 6-(4-Methoxybenzyl)-9-((1-methyl-1H-imidazol-2-yl)methyl)-8,9,10,11-tetrahydropyrido[4′,3′:4,5]thieno[3,2-e][1,2,4]triazolo[1,5-c]pyrimidin-5(6H)-one]		>7
COc1ccc(Cn2c(=O)n3ncnc3c3c4c(sc32)CN(Cc2scnc2C)CC4)cc1 [Example 123]		>7
COc1ccc(Cn2c(=O)n3ncnc3c3c4c(sc32)CN(C2CS(=O)(=O)C2)CC4)cc1 [Example 124, 9-(1,1-Dioxidothietan-3-yl)-6-(4-methoxybenzyl)-8,9,10,11-tetrahydropyrido[4′,3′:4,5]thieno[3,2-e][1,2,4]triazolo[1,5-c]pyrimidin-5 (6H)-one]	100 to 1000	
COc1ccc(Cn2c(=O)n3ncnc3c3c4c(sc32)CN(CC2COCCO2)CC4)cc1 (centres unmarked) [Example 125, 9-((1,4-Dioxan-2-yl)methyl)-6-(4-methoxybenzyl)-8,9,10,11-tetrahydropyrido[4′,3′:4,5]thieno[3,2-e][1,2,4]triazolo[1,5-c]pyrimidin-5(6H)-one]		>7
COc1ccc(Cn2c(=O)n3ncnc3c3c4c(sc32)CN(CC2CCC(=O)O2)CC4)cc1 (centres unmarked) [Example 126]		>7
COc1ccc(Cn2c(=O)n3ncnc3c3c4c(sc32)CN(Cc2ccc(F)cc2)CC4)cc1 [Example 127, 9-(4-Fluorobenzyl)-6-(4-methoxybenzyl)-8,9,10,11-tetrahydropyrido[4′,3′:4,5]thieno[3,2-e][1,2,4]triazolo[1,5-c]pyrimidin-5(6H)-one]		>7
COc1ccc(Cn2c(=O)n3ncnc3c3c4c(sc32)CN(Cc2ccccc2F)CC4)cc1 [Example 128, 9-(2-Fluorobenzyl)-6-(4-methoxybenzyl)-8,9,10,11-tetrahydropyrido[4′,3′:4,5]thieno[3,2-e][1,2,4]triazolo[1,5-c]pyrimidin-5(6H)-one]		>7

— patent publication US10092575B2, “Substituted thiophene- and furan-fused azolopyrimidine-5-(6H)-one compounds” (DART NEUROSCIENCE (CAYMAN) LTD., priority 2012, dated 2018)
